The values below come from patent US20080145313A1, “Compositions and Methods for the Treatment and Prevention of Neoplastic Disorders” (Genesis Research & Development Corporation Limited, priority 2006, published 2008).

The test system of the first series is A549 cells. Nature of the series: Growth inhibition of siRNA-transfected A549 cells, SYBR Green I DNA content. It counts as cell-based, human. To be noted: 10 nM siRNA; DNA content 96 hours after transfection. A digest of the protocol: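 A549 cells reverse-transfected with 10 nM Stealth siRNAs via Lipofectamine RNAiMAX, seeded at 5×10^3 cells/cm^2 in RPMI 1640/10% FCS; non-specific siRNA control. DNA content read 96 h post-transfection by SYBR Green I fluorescence (ex 485/em 535 nm) after freeze-thaw and Triton X-100 lysis; mean of three wells.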
Turning to “SEQ ID NO: 4995: siRNA targeting DGUOK (chain 1 CCTCATGAGAGAGGTAAACACCTTT; chain 2 CCUCAUGAGAGAGGUAAACACCUUU; chemistry not given here; one strand in two spellings)”, the “Growth Inhibition in A549 cells” value is reported as “− (no growth inhibition with any siRNA)”.

On to “SEQ ID NO: 4991: siRNA targeting TK1 (chain 1 GCACTGGATGGGACCTTCCAGAGGA; chain 2 GCACUGGAUGGGACCUUCCAGAGGA; chemistry not given here; one strand in two spellings)”, for which the “Growth Inhibition in A549 cells” value was “− (no growth inhibition with any siRNA)”. Same read-out and setting: the value for “SEQ ID NO: 4860: siRNA targeting SLC25A5 (ANT2) (chain 1 ATGCCAGATTCCCTGCAAAGTAGCG; chain 2 AUGCCAGAUUCCCUGCAAAGUAGCG; Both strands are one antisense strand in DNA/RNA notation, chemistry not given here, further chemistry not given here; one strand in two spellings)” was “+ (inhibits by at least 50%)”; that for “SEQ ID NO: 4819: siRNA targeting PFKL (chain 1 TAGTAGTCATGGCACTTCTCGTTCC; chain 2 UAGUAGUCAUGGCACUUCUCGUUCC; chemistry not given here; one strand in two spellings)” was “− (no growth inhibition with any siRNA)”. Same read-out and setting: the value for “SEQ ID NO: 4815: siRNA targeting LDHA/5 (chain 1 ATTAAGACGGCTTTCTCCCTCTTGC; chain 2 AUUAAGACGGCUUUCUCCCUCUUGC; chemistry not given here; one strand in two spellings)” was “− (no growth inhibition with any siRNA)”; that for “SEQ ID NO: 4987: siRNA targeting DCK (chain 1 CAAGACTGGCATGACTGGATGAATA; chain 2 CAAGACUGGCAUGACUGGAUGAAUA; Both strands are one antisense strand in DNA/RNA notation, chemistry not given here, further chemistry not given here; one strand in two spellings)” was “− (no growth inhibition with any siRNA)”. On to “SEQ ID NO: 4861: siRNA targeting SLC25A5 (ANT2) (chain 1 ATTTGTAGATCTTAACCAGGCAGTC; chain 2 AUUUGUAGAUCUUAACCAGGCAGUC; Both strands are one antisense strand in DNA/RNA notation, chemistry not given here, further chemistry not given here; one strand in two spellings)”, for which the “Growth Inhibition in A549 cells” value was “− (no growth inhibition with any siRNA)”. On the same count and under the same terms, as for “SEQ ID NO: 4823: siRNA targeting PRPS1 (chain 1 TCAAGATGGCATAAACTCTGGTGGC; chain 2 UCAAGAUGGCAUAAACUCUGGUGGC; chemistry not given here; one strand in two spellings)”, the entry is “+ (inhibits by at least 50%)”; as for “SEQ ID NO: 4866: siRNA targeting UQCRC2 (chain 1 ACACCAAGTCCAATCAAAGCCATTC; chain 2 ACACCAAGUCCAAUCAAAGCCAUUC; Both strands are one antisense strand in DNA/RNA notation, chemistry not given here, further chemistry not given here; one strand in two spellings)”, “− (no growth inhibition with any siRNA)”.

Still in this series, the particulars now being: A549 cells, 10 nM siRNA, DNA content 96 hours after transfection, transporter gene targets.
Take “SEQ ID NO: 4951: siRNA targeting ATP6V1A (chain 1 AAATGGCTCCCATAATGCCAGGACC; chain 2 AAAUGGCUCCCAUAAUGCCAGGACC; chemistry not given here; one strand in two spellings)”: the “Growth Inhibition in A549 cells by 10 nM siRNA” value is on record as “+ (inhibits by at least 50%)”.
